Our source for the cytotoxicity, inhibition and Activity values is ChEMBL document CHEMBL3045513, “Design, synthesis, and biological evaluation of novel 2,4-thiazolidinedione derivatives as histone deacetylase inhibitors targeting liver cancer cell line” (Med Chem Res, 2012).

The nature of series [1]: Cytotoxicity against Homo sapiens (human) WRL68 cells at 100 uM after 120 hr by MTT assay. The format is cell-based. The settings on record: read-out: INH. In general terms: Tetrazolium dyes change colour on reduction, which living cells bring about.
The target in series [2] is T1, Histone deacetylase (Homo sapiens) (UniProt Q13547+O15379+Q9UBN7+Q92769+Q9UQL6+Q8WUI4+Q9BY41+Q96DB2+P56524+Q9UKV0+Q969S8). As to the kind of experiment: Inhibition of histone deacetylase in Homo sapiens (human) HepG2 cells at 100 uM after 8 hr by colorimetry. Type of series: cell-based.
In series [3] the target is T1, Histone deacetylase (Homo sapiens). Briefly: Inhibition of histone deacetylase in Homo sapiens (human) HepG2 nuclear extract assessed as low level acetylation of H2A at 100 uM after 8 hr by TAU PAGE analysis. Type of series: protein assay.
Series [4] deals with HepG2. Briefly: Antiproliferative activity against Homo sapiens (human) HepG2 cells at 100 uM after 48 hr by MTT assay. Type of series: functional. The note with it: HepG2, 48 h.
Series [5] has as its target T1, Histone deacetylase (Homo sapiens). Briefly: Inhibition of histone deacetylase in Homo sapiens (human) HepG2 nuclear extract assessed as hyperacetylation of H4 at 100 uM after 8 hr by TAU PAGE analysis. Type of series: protein assay.
Series [6] can be described thus: Cytotoxicity against Homo sapiens (human) WRL68 cells at 100 uM after 48 hr by MTT assay. Type of series: cell-based. The settings on record: read-out: INH.
In series [7] the target is T1, Histone deacetylase (Homo sapiens). As to the kind of experiment: Inhibition of histone deacetylase in Homo sapiens (human) HepG2 nuclear extract assessed as low level acetylation of H2B at 100 uM after 8 hr by TAU PAGE analysis. The format is protein assay.
Series [8] has as its system HepG2. As to the kind of experiment: Antiproliferative activity against Homo sapiens (human) HepG2 cells at 100 uM after 120 hr by MTT assay. Type of series: functional. The settings on record: HepG2, 120 h.
Series [9] deals with HepG2. Briefly: Antiproliferative activity against Homo sapiens (human) HepG2 cells assessed as elongated shaped cells. The format is functional, cell-based.
Series [10] concerns the target T1, Histone deacetylase (Homo sapiens). Briefly: Inhibition of histone deacetylase in Homo sapiens (human) HepG2 nuclear extract assessed as hyperacetylation of H3 at 100 uM after 8 hr by TAU PAGE analysis. Type of series: protein assay.
For series [11] the target is unchanged. Briefly: Inhibition of histone deacetylase in Homo sapiens (human) HepG2 cells assessed as hyperacetylation of H3 at 100 uM after 8 hr by Western blot analysis. Type of series: cell-based. Background: In western blotting, separated proteins are transferred to a membrane and probed.
Series [12] shares this target. The settings on record: HepG2, 1 mM.
Description: Inhibition of histone deacetylase in Homo sapiens (human) HepG2 cells at 1 mM after 8 hr by colorimetry

Activity calls are given as the source filed them. No cut-off for these calls is given here.

The inhibition is the change of the read-out against control, counted positive when it falls.

For the compound `O=C(NCCCCCCN1C(=O)CSC1=O)c1ccccc1`, in series [1], the cytotoxicity at 120 h, 100 µM amounted to 92.3%. This compound also registered an inhibition in series [2] of 42.1%. In addition, the result (in [3]; in series [5]; in [7]; in the series on HepG2 [9]; in series [10]; in [11]) was Active. In addition, the inhibition at 100 µM in the series with HepG2 [4] was 42.3%; in the series on HepG2 [8], 83%. Besides, the cytotoxicity at 48 h, 100 µM in series [6] is 34.7%.
With `O=C1CSC(=O)N1CCCCCCNS(=O)(=O)c1ccccc1`, the cytotoxicity at 120 h, 100 µM in [1] was determined as 55.6%. The inhibition in series [2] amounted to 56.9%. For the same compound, the result (in series [3]; in series [5]; in series [7]; in the series with HepG2 [9]; in [10]; in series [11]) was Active. Moreover, the values for the inhibition at 100 µM with HepG2 [4] and with HepG2 [8] were 57.3% and 69.5%, respectively. In series [6], the cytotoxicity at 48 h, 100 µM came out at 37.5%.
Turning to `CCCC(=O)[O-].[Na+]`, the inhibition in [12] was 52.3%.
